From US12018058B2, “Compositions and methods for diagnosing and/or treating kidney injury” (Boston Medical Center Corporation, priority 2018, dated 2024)
Square brackets hold non-standard residues; d marks the D form. Peptide text beside a SMILES is read from it. βAla = NCCC(=O)O

Target: T1, NPM-Bax complex (Homo sapiens, UniProt P06748)
T1 construct: endogenous in cells; host or cells: primary human proximal tubule epithelial cells (PTEC), ATP-depleted
Assay: NPM-Bax interaction, active Bax immunoprecipitates from PTEC lysates after ATP depletion
Type: cell-based
Details: for Bax-NPM interaction in renal epithelial cells in vitro: PTEC, 60 min ATP depletion plus 30 min recovery, FIG. 9A
Experimental: Similar amounts of Bax were detected in each lane, and input protein amounts for each sample were identical. IB, immunoblot; IP, immunoprecipitation.
Cell, tissue, and urinary proteins were harvested using PD buffer containing 40 mM Tris-HCl, pH 8.0, 500 mM NaCl, 0.1% Nonidet P-40, 6 mM EGTA, and a protease inhibitor cocktail (Set I; Calbiochem, San Diego, CA). NPM was immunoprecipitated overnight with NPM antibodies (catalog no. B0556; Sigma-Aldrich) in the presence of protein A/G-agarose beads at 4° C. NPM accumulation was measured in cytosolic samples extracted with low-dose digitonin ([…]).13 Cytosolic proteins were extracted from renal cortical tissue samples using an extraction kit (Biochain Institute, Newark, CA). Briefly, 50-100 mg of kidney cortex tissue was minced on ice and spin washed with 1 ml ice-cold wash buffer before adding […] of buffer C. The mixture was rotated at 4° C. for 20 minutes and then centrifuged at 18,0003 g at 4° C. for 20 minutes before being harvested. Protein levels were measured with the bicinchoninic acid assay (Thermo Scientific, Rockford, IL).

T1 sequence (P06748 whole entry, one chain of several): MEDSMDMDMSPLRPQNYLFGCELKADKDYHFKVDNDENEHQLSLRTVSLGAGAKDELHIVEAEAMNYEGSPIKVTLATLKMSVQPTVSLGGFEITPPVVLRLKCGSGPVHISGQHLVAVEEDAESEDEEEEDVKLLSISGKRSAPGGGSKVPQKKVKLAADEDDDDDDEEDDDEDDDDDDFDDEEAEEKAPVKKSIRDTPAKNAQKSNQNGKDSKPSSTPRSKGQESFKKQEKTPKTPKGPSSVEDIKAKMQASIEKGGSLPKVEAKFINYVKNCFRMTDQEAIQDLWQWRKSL

CC[C@H](C)[C@H](NC(=O)[C@@H](NC(=O)[C@H](CC(C)C)NC(=O)[C@H](CO)NC(=O)[C@H](C)NC(=O)[C@@H](NC(=O)[C@H](CC(C)C)NC(=O)[C@@H](NC(=O)CNC(=O)[C@H](C)NC(=O)[C@@H](NC(=O)[C@H](Cc1ccccc1)NC(=O)[C@@H](NC(=O)[C@@H](NC(=O)[C@@H](NC(=O)[C@@H](NC(=O)CCNC(=O)[C@@H](NC(=O)[C@H](CCCCN)NC(=O)[C@H](CCCNC(=N)N)NC(=O)[C@H](CCCCN)NC(=O)[C@H](CCCCN)NC(=O)[C@H](CCCCN)NC(C)=O)C(C)C)[C@@H](C)O)C(C)C)[C@@H](C)O)[C@@H](C)CC)C(C)C)C(C)C)[C@@H](C)O)[C@@H](C)O)C(=O)N[C@@H](Cc1c[nH]c2ccccc12)C(=O)N[C@@H](CCCCN)C(=O)N[C@@H](CCCCN)C(=O)N[C@@H](CCSC)C(=O)NCC(=O)O [Peptide #1] (Ac-KKKRKV[βAla]TVTIFVAGVLTASLTIWKKMG-OH)
Decrease of NPM-Bax complex formation in vitro (FIG. 9): about 50%
Bax-NPM interaction in renal epithelial cells in vitro: markedly decreases
Bax-NPM interaction in renal epithelial cells in vitro (listed as Blocking peptide): markedly reduced
Bax-NPM interaction in renal epithelial cells in vitro (listed as NPM-Bax blocking peptide (Peptide #1)): decreases
